For assay [1], the target named is T1, recombinant TsTIM (WT TsTIM) (Taenia solium, UniProt Q9GTX8).
T1 construct: N-terminal six-His tag from pRSET, expressed in E. coli BL21 Codon Plus (DE3)-RIL, IMAC-purified, tag removal not mentioned; TIM is a dimer
Kind of assay: enzyme inactivation assay, GAP to DHAP, alpha-GDH coupled NADH oxidation at […] nm. It counts as biochemical.

Assay [2] addresses T1, recombinant TsTIM (WT TsTIM). Kind of assay: alpha-GDH coupled NADH oxidation at […] nm. Conditions: GAP to DHAP direction. It is filed as biochemical.

Bounds are passed on as bounds.

T1 sequence (Q9GTX8 whole entry): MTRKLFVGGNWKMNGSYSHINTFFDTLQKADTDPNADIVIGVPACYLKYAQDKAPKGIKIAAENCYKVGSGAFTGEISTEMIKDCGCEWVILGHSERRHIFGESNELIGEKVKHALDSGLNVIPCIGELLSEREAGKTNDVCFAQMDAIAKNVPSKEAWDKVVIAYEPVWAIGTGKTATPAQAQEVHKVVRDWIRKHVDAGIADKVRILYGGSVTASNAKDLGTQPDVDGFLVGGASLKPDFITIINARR

With `CCOC(=O)c1ccc2c(c1)[n+]([O-])c(C(=O)c1cccs1)c(C(F)(F)F)[n+]2[O-]` [TS-12], the inhibition (commonly the relative decrease from the control value, in per cent) at 1000 µM in assay [1] was less than 40%.
As for `O=C[C@H](O)COP(=O)(O)O` [glyceraldehyde 3-phosphate], the “alpha-GDH coupled NADH oxidation at 340 nm” value in assay [2] is “measuring the conversion of glyceraldehyde 3-phosphate (GAP) to dihydroxyacetone phosphate (DHAP)”.

Source of the values: paper PMC11944476, “In Vitro Evaluation of Esters of Quinoxaline-1,4-di-N-oxide Derivatives as New Antitaeniasis Agents and Their Inhibitory Activity Against Triosephosphate Isomerase” (Pharmaceuticals, 2025).
